Results as given in US10357514B2, “Treatment of cancer using anti-CD19 Chimeric Antigen Receptor” (The Trustees of the University of Pennsylvania, priority 2014, dated 2019).

Tests used:
Mino = assay: MTT assay, ibrutinib inhibition of proliferation; assay type: cell-based; conditions: Homo sapiens
Nalm/6 cells = assay: Nalm/6 tumor model in NSG mice; assay type: in vivo
Procedure: CART19 function was assessed in an in vivo mouse model. Nalm/6 cells (human acute lymphoblastic leukemia cell line) were implanted into NSG mice, and the mice were monitored daily for at least 50 days. […] CART19 was administered on day 7 or day 9, or mice were left untreated (control). […] For example, the cells were stained with anti-human CD19 antibody to determine the percent of human CD19+(Nalm/6) cells in the blood of the tumor-bearing NSG mice.

RL = assay: MTT assay, ibrutinib inhibition of proliferation; assay type: cell-based; conditions: Homo sapiens
Jeko-1 = assay: MTT assay, ibrutinib inhibition of proliferation; assay type: cell-based; conditions: Homo sapiens
CART19 T cells = conditions: 0.1, 0.5, 1 and 5 μM ibrutinib
RL cells = assay: Ibrutinib sensitivity by reduction of bioluminescence (BLI); assay type: cell-based, human; conditions: 0.1 nM to 10 μM
MCL = conditions: cited from earlier work
MCL-RL cells = assay: MCL-RL xenograft model in NSG mice; assay type: in vivo
Procedure: NOD-SCID-γ chain−/− (NSG) mice originally obtained from Jackson Laboratories were purchased from the Stem Cell and Xenograft Core of the University of Pennsylvania. All experiments were performed on protocols approved by the Institutional Animal Care and Use Committee (IACUC). Schematics of the utilized xenograft models are discussed herein. Cells (MCL cell lines or T cells) were injected in 200 ul of PBS at the indicated concentration into the tail veins of mice. Bioluminescent imaging was performed using a Xenogen IVIS-200 Spectrum camera and analyzed with LivingImage software v. 4.3.1 (Caliper LifeSciencies). Animals were euthanized at the end of the experiment or when they met pre-specified endpoints according to the IACUC protocols.
Schematics such as those shown in FIGS. 20, 55, and 5A were used in this example. […] 1×10^6 cells from RL (MCL-3), JEKO-1 (MCL-4), and NALM6 (MCL-5) cell lines are injected in NSG mice (20 mice for each experiment). […] At Day 7, Day 14, Day 21, and Day 28, the bioluminescence is imaged to monitor tumor size. […] Survival of the mice is also monitored. […] 2×10^6 MCL-RL cells are injected into NSG mice. […] At days 14, 21, 28, and 35 (after injection of MCL-RL cells), the bioluminescence is imaged to monitor tumor size.
Mean bioluminescence, representing tumor growth, was assessed at various timepoints.

PBMCs = assay: CAR19 lentiviral transduction of ibrutinib-treated normal donor PBMCs; assay type: cell-based, human; conditions: PBMCs incubated with 5 μM ibrutinib for 30 minutes
Procedure: Normal donor PBMCs were obtained using apheresis as described herein, for example in Example 6. […] The cells were then transduced with lentiviral constructs containing CAR19 to generate CART19 T cells using the methods described herein, for example, in Example 4. The number of CART19 T cells generated from ibrutinib-treated PBMCs FACs analysis was performed to determine the number of CART19 T cells generated from ibrutinib-treated PBMCs compared to untreated PBMCs.

JEKO-1 cells = assay: Ibrutinib sensitivity by reduction of bioluminescence (BLI); assay type: cell-based, human; conditions: 0.1 nM to 10 μM
[1] = mice; cited from earlier work
[2] = system: luciferase-expressing mantle cell line (RL luc); assay: Lymphoma xenograft model, tumor burden by mean bioluminescence; assay type: in vivo, NSG mice; conditions: 200 ng/mouse i.p. three times weekly from Day 85, mice with suboptimal response to CART19
Description: Tumor size was monitored by measuring the mean bioluminescence of the engrafted tumors over more than 80 days. […] When comparing the tumor burden of mice that received IL-7 treatment to control, before and after IL-7 treatment, tumor reduction in tumor burden was only seen in the mice that had received IL-7 treatment (FIG. 49C).

For `C=CC(=O)N1CCC[C@@H](n2nc(-c3ccc(Oc4ccccc4)cc3)c3c(N)ncnc32)C1` [ibrutinib, 1-[(3R)-3-[4-Amino-3-(4-phenoxyphenyl)-1H-pyrazolo[3,4-d]pyrimidin-1-yl]piperidin-1-yl]prop-2-en-1-one], the IC50 (Mino) was at most 10 µM, the “Nalm/6 cells circulating in peripheral blood” value (Nalm/6 cells; daily oral gavage from day 7, CART19 on day 7 or 9) was “does not impair CART19 function in clearing Nalm/6 cells” and the “survival after injection of Nalm/6 cells” value (Nalm/6 cells; ibrutinib without CART19 T cells) was at most 30 days. For the same molecule, the IC50 (RL) was 0.01 µM, the IC50 (Jeko-1) was at most 10 µM and the “CD3/CD28-stimulated CART19 cell proliferation” value (CART19 T cells) was “did not affect CART19 cell proliferation”. For the same molecule, the “sensitivity to ibrutinib (reduction of bioluminescence)” value (RL cells) was “sensitive”, the “patients who do not respond” value (MCL) was “about 30%” and the median overall survival (MCL-RL cells; 25 mg/kg/day) was 81 days. The median overall survival (MCL-RL cells; 125 mg/kg/day) was 100 days, the “tumor growth (mean bioluminescence)” value (MCL-RL cells; ibrutinib alone, 25 and 250 mg/kg/day) was “dose-related sensitivity” and the “circulating and nodal/organ MCL cells” value (MCL-RL cells; one week after beginning ibrutinib alone) was “more circulating MCL cells and fewer nodal/organ MCL cells”. The “tumor burden (bioluminescence)” value (MCL-RL cells; treatment from Day 7, CART19 2×10^6 cells, ibrutinib 125 mg/kg/day) was “modestly delayed tumor growth at early time points”, the “transduced PBMCs expressing CAR19” value (PBMCs) was 15% and the “sensitivity to ibrutinib (reduction of bioluminescence)” value (JEKO-1 cells) was “resistant”.

In the case of `CO[C@H]1C[C@@H]2CC[C@@H](C)[C@@](O)(O2)C(=O)C(=O)N2CCCC[C@H]2C(=O)O[C@H]([C@H](C)C[C@@H]2CC[C@@H](O)[C@H](OC)C2)CC(=O)[C@H](C)/C=C(\C)[C@@H](O)[C@@H](OC)C(=O)[C@H](C)C[C@H](C)/C=C/C=C/C=C/1C` [rapamycin], the lifespan [1] is listed as “extended lifespan”.

B1: IL-7: exogenous recombinant human IL-7 (protein, UniProt P13232 26-177, looked up)
Interleukin-7: DCDIEGKDGKQYESVLMVSIDQLLDSMKEIGSNCLNNEFNFFKRHICDANKEGMFLFRAARKLRQFLKMNSTGDFDLHLLKVSEGTTILLNCTGQVKGRKPAALGEAQPTKSLEENKSLKEQKKLNDLCFLKRLLQEIKTCWNKILMGTKEH
In the case of B1, the “reduction in tumor burden” value [2] is reported as 1-3 log.
